Assay [1] deals with T1, IRAK4 (Homo sapiens, UniProt Q9NWZ3).
T1 construct: His-TEV-IRAK4 (1-460); His (N); TEV cleavage site (N)
T1 sequence (Q9NWZ3 1-460): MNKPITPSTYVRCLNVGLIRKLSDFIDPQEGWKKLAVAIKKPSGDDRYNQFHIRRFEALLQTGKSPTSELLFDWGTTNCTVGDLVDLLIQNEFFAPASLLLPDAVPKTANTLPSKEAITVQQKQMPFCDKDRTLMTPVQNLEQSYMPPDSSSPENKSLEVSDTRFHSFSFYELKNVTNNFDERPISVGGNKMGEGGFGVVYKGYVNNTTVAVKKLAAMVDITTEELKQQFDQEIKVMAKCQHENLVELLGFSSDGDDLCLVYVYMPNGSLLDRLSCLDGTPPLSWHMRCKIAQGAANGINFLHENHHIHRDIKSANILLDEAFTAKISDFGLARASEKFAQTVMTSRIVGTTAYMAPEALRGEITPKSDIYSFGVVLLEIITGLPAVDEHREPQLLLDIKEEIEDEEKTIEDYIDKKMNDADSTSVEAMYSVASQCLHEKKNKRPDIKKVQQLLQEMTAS
The experiment in a line: IRAK4 enzymatic assay (ADP-Glo luminescence). Type of assay: biochemical. The following applies: purified human recombinant His-TEV-IRAK4 (1-460), ATP 2 μM. Put shortly:
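Recombinant His-TEV-IRAK4 (1-460) at 0.3 μg/ml preincubated 15 min at RT with compounds (10 μM to 0.5 nM) in Hepes pH 7.0 buffer with MgCl2/MnCl2. Reaction started with 2 μM ATP and 300 nM STK1-biotin peptide, run 2 h at RT. ADP formed read by ADP-Glo luminescence.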
A general note: ADP-Glo first removes unused ATP, then detects ADP through luciferase.

Assay [2] addresses T2, IRAK1 (Homo sapiens, UniProt P51617).
T2 construct: His-TEV-IRAK1 (194-712); His (N); TEV cleavage site (N)
Briefly: IRAK1 enzymatic assay (ADP-Glo luminescence). Type of assay: biochemical. The settings on record: purified human recombinant His-TEV-IRAK1 (194-712). Put shortly:
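Recombinant human His-TEV-IRAK1 (194-712), 0.3 μg/ml, preincubated 15 min at RT with compounds (10 μM to 0.5 nM) in 50 mM Hepes pH 7.0, 10 mM MgCl2, 2 mM DTT, 0.1% BSA. ATP-started reaction run 2 hours at RT; ADP formed from ATP hydrolysis/autophosphorylation read by ADP-Glo luminescence.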

T2 sequence (P51617 194-712): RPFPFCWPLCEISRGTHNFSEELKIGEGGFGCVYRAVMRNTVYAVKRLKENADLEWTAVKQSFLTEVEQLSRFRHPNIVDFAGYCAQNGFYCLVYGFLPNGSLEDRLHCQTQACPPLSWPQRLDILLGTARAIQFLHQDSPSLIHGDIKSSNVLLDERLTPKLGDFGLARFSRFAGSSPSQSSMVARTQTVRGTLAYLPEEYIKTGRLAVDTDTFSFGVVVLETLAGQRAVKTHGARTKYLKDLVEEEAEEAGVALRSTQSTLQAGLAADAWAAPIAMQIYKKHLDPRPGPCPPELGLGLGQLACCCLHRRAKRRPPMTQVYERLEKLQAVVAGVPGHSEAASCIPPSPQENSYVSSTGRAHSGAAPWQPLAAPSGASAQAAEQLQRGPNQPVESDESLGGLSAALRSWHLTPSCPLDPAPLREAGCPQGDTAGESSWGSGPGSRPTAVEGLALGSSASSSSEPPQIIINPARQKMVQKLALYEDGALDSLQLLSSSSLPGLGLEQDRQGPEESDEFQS

With `N#Cc1cccc(C(=O)/N=c2\[nH]c3cc(N4CCCOC4=O)ccc3n2CC2(F)CCOCC2)c1` [Example 230, (E)-3-cyano-N-(1-((4-fluorotetrahydro-2H-pyran-4-yl)methyl)-5-(2-oxo-1,3-oxazinan-3-yl)-1H-benzo[d]imidazol-2(3H)-ylidene)benzamide], the figures for the IC50 in assay [1] and in assay [2] were no more than 100 nM and 100 to 1000 nM, respectively.

Turning to `CC(=O)c1cccc(C(=O)/N=c2\[nH]c3cc(N4CCOCC4=O)ccc3n2CCCO)c1` [Example 231, (E)-3-acetyl-N-(1-(3-hydroxypropyl)-5-(3-oxomorpholino)-1H-benzo[d]imidazol-2(3H)-ylidene)benzamide], the IC50 in assay [1] is no more than 100 nM; in assay [2] it was 100 to 1000 nM.

Consider `O=C(/N=c1\[nH]c2cc(N3CCOCC3=O)ccc2n1CCCO)c1ccc2scnc2c1` [Example 232, (E)-N-(1-(3-hydroxypropyl)-5-(3-oxomorpholino)-1H-benzo[d]imidazol-2(3H)-ylidene)benzo[d]thiazole-5-carboxamide], for which the IC50 in assay [1] is no more than 100 nM; in assay [2] it was greater than 1000 nM.

In general, IC50 refers to the concentration that inhibits the measured activity by half.

These data come from US10059701B2 (Merck Patent GmbH, priority 2015, dated 2018).
